In series [1] the test system is target gene SOD1. The series can be described thus: Test Example 6: inhibitory activity of NM073, NM074 conjugated siRNA sequences on SOD1 by intrathecal administration to rats. The settings on record: intrathecal, 900 μg per rat, D28. In kind it is in vivo, SD rats. As for the experimental part:
6-8 Week-old SD rats were randomly grouped by body weight. Rats in each group were administered with siRNA by intrathecal administration, with an administration dose of 900 μg per rat. Injection was administered from rat spinal cord L5-L6, with an administration volume of 40 μL. Needle was retained for 2 min after completion of injection, and then slowly withdrawn. PBS control group was administered with the same volume of siRNA conjugate-free PBS solution. The day of administration was recorded as 0 day (D0), and the rats were sacrificed at observation point after administration. Different segments of spinal cord and different regions of brain were respectively taken and stored in the RNAlater.
(§1) RNA extraction: the above tissue samples were taken out from the RNAlater, and smashed for 60 s in Tissuelyser type II full-automatic tissue homogenizer, and total RNAs of various tissue samples were extracted using the full-automatic nucleic acid extraction instrument and the nucleic acid extraction kit from Zhejiang Hanwei Science and Technology Co. Ltd. according to methods described in instructions.
(§2) Reverse transcription reaction: 1 μg of the extracted total RNAs of the tissue samples were taken, and configured into 20 μL of reverse transcription system according to a method described in kit instructions by using a reverse transcription kit (Reverse Transcription System, A3500) from Promega Corporation and selecting Oligo (dT)15 reverse transcription primers, and the reverse transcription reaction was completed. After the reaction was ended, 80 μL of RNase-Free water was added into the reverse transcription system to provide cDNA solution for Real-time PCR detection.
(§3) Real-time PCR detection: 20 μL of Real-time PCR reaction system per PCR detection well was configured according to a method described in kit instructions using SYBR™ Select Master Mix (Catalog number: 4472908) reagent from ABI company. Each detection system contained 5 μL of cDNA template obtained from the above reverse transcription reaction, 10 μL of SYBR™ Select Master Mix, 0.5 μL of 10 μM upstream primers, 0.5 μL of 10 μM downstream primers, and 4 μL of RNase-Free H2O. The configured reaction system was subjected to Real-time PCR amplification on ABI StepOnePlus PCR instrument by a three-step method, wherein an amplification procedure was pre-denaturation at 95° C. for 10 min, then denaturation at 95° C. for 30 s, annealing at 60° C. for 30 s, and extension at 72° C. for 30 s; and processes of denaturation, annealing, and extension were repeated for 40 cycles. Gene expression differences were calculated by the ΔΔCt method after completion of the procedure.
(§4) In the real-time fluorescence quantitative PCR method, relative quantitative calculation of remaining expression level and inhibition rate of gene mRNA of interest in various test groups was performed by the ΔΔCt method, and the calculation method is as follows:
The present test example evaluated, by an evaluation method for inhibitory activity on a target gene by intrathecal administration to rats, the inhibitory activity of siRNA sequence RZ899090 with the NM073 conjugation at Position 4, siRNA sequence RZ899091 with the NM074 conjugation at Position 4 and siRNA control sequence RZ899093 with the Uhd conjugation on the target gene SOD1 of interest in spinal cord and brain of rats. The above conjugation vectors were different in that NM073 was C18 aliphatic chain and NM074 was C20 aliphatic chain.
6-8 Week-old SD rats were randomly grouped by body weight, 5 per group, 4 groups in total. Rats in each group were dosed with the above siRNA conjugates by intrathecal administration, with an administration dose of 900 μg per rat, and an administration volume of 40 μL. PBS control group was administered with the same volume of siRNA conjugate-free PBS solution. The day of administration was recorded as D0, and the rats were sacrificed on D28 after administration. […]

The subject of series [2] is target gene SOD1. The series can be described thus: Test Example 4: lipid conjugated siRNA sequences with different carbon chain lengths, SOD1 in mouse brain, lateral ventricle administration. In kind it is in vivo, C57BL/6j mice. Also on record: Right hemisphere Mean value of inhibition rate / Left hemisphere Mean value of inhibition rate: unit not given here. The settings on record: lateral ventricle, 150 μg per mouse, D5.

Series [3] concerns target gene SOD1. Kind of series: Test Example 8: inhibitory activity on target gene SOD1 in adipose tissues in different parts of mice. Format: in vivo, C57BL/6j mice. The conditions noted are these: tail vein injection 5 mg/kg, D14. As for the experimental part:
as §1, §2, §3, §4
The present test example evaluated, by an evaluation method for inhibitory activity on a target gene in mice, the inhibitory activity of siRNA sequence RZ899090 with the sense strand with the NM073 conjugation at Position 4, siRNA sequence RZ899091 with the sense strand with the NM074 conjugation at Position 4, siRNA sequence RZ899078 with the sense strand with the NM202 conjugation at Position 6 and siRNA reference sequence RZ899093 with the sense strand with the Uhd conjugation at Position 4, siRNA reference sequence RZ899076 with the sense strand with the NM200 conjugation at Position 4 on the target gene SOD1 in adipose tissues of interest in mice.
6-8 Week-old C57BL/6j mice were randomly grouped by body weight, 5 per group, 6 groups in total. Mice in each group were dosed with the above siRNA conjugates by tail vein injection, with an administration dose of 5 mg/kg per mouse, and an administration volume of 150 μL. PBS control group was administered with the same volume of siRNA conjugate-free PBS solution. The day of administration was recorded as D0, and 5 mice in each group were sacrificed on D14 after administration. Paragonadal fat, abdominal subcutaneous fat, and brown fat on back were respectively taken. RNA extraction, reverse transcription, and real-time fluorescence quantitative detection were performed on various tissues according to the above method, and gene expression differences were calculated by the above ΔΔCt method.

Strand notation (5' to 3'): a small letter for the sugar, then the base; units joined by * are phosphorothioate-linked, units joined directly phosphodiester-linked; [ ] holds rarer units or linkages, { } end groups; capitals alone tell only the bases. [Uhd] = commercial lipid-conjugated uridine analogue Uhd (C16), from Hongene, reference; {VP} = (thio)vinylphosphonate on the antisense 5' nucleotide, as listed; e = 2'-O-(2-methoxyethyl) (MOE); m = 2'-O-methyl; f = 2'-fluoro

As to “RZ899093: siRNA reference sequence with the sense strand with the Uhd (C16) conjugation at Position 4; SEQ ID NO: 13 / 23 (sense mU*mU*mU[Uhd]mAmAfUfCfCfUmCmAmCmUmCmUmAmAmA; antisense {VP}-mU*fU*mUmAmGfAmGmUmGmAmGfGmAfUeUfAmAmAmA*mU*mG) [reference compound]”, the “Cerebellum % Mean value of inhibition rate” value in series [1] (cerebellum) worked out at 55.89%. The “Cortex % Mean value of inhibition rate” value in series [1] (cerebral cortex) is 36.29%. In addition, in series [1] (hippocampus), the “Hippocampus % Mean value of inhibition rate” value amounted to 52.87%. Also, the “Cervical segment % Mean value of inhibition rate” value in series [1] (spinal cord cervical segment) amounted to 69.68%. For the same substance, the “Lumbar segment % Mean value of inhibition rate” value in series [1] (spinal cord lumbar segment) is reported as 95.31%. For the same substance, in series [1] (spinal cord thoracic segment), the “Thoracic segment % Mean value of inhibition rate” value worked out at 94.90%. Further, the “Left hemisphere Mean value of inhibition rate” value in series [2] (left hemisphere (non-administration side)) came out at 70.23. In addition, the “Right hemisphere Mean value of inhibition rate” value in series [2] (right hemisphere (administration side)) is recorded as 80.47. Besides, the “Subcutaneous fat % Mean value of inhibition rate” value in series [3] (abdominal subcutaneous fat) is listed as 85.92%. The “Brown fat on back % Mean value of inhibition rate” value in series [3] (brown fat on back) was found to be 77.13%. Besides, the “Paragonadal fat % Mean value of inhibition rate” value in series [3] (paragonadal fat) was 76.20%.

Values taken from patent US20260132165A1, “MODIFIED NUCLEOSIDE ANALOGUE AND USE THEREOF, AND NUCLEOSIDE ANALOGUE-CONTAINING DOUBLE-STRANDED OLIGONUCLEOTIDE AND USE THEREOF” (RIGERNA THERAPEUTICS (BEIJING) CO., LTD., priority 2023, published 2026).
